Measurements from patent US20250145665A1, “MACROCYCLIC PEPTIDES USEFUL AS MODULATORS OF TNF ALPHA” (Bristol-Myers Squibb Company, priority 2023, published 2025).
pIC50: −log10 of the molar value. Starred links: 1 amine or outer side, 2 acyl side, 3 side chain; linkers in the order of their positions; H or OH if unused. Positions of bridges follow the written chain, without caps; N, C: chain ends. Non-standard residues stand in square brackets, D forms with d. Residues, ends and D or L forms follow the SMILES beside them. *: point of attachment. Bip(4'-NHCO-C6H4-3-CH2COOH) = N[C@@H](Cc1ccc(-c2ccc(NC(=O)c3cccc(CC(=O)O)c3)cc2)cc1)C(=O)O; Bip(4'-NHCO-C6H4-4-CH2COOH) = N[C@@H](Cc1ccc(-c2ccc(NC(=O)c3ccc(CC(=O)O)cc3)cc2)cc1)C(=O)O; Bip(4'-(3-HOOC-benzamido)) = N[C@@H](Cc1ccc(-c2ccc(NC(=O)c3cccc(C(=O)O)c3)cc2)cc1)C(=O)O; dArg(ω-(2S)-2,3-diOHpropyl) = N=C(NCCC[C@@H](N)C(=O)O)NC[C@H](O)CO; Bip(4'-NH) = O=C([C@H](Cc1ccc(-c2ccc(N[*:3])cc2)cc1)N[*:1])[*:2]; Bip(4'-CONHMe) = CNC(=O)c1ccc(-c2ccc(C[C@H](N)C(=O)O)cc2)cc1; Bip(4'-COOH) = N[C@@H](Cc1ccc(-c2ccc(C(=O)O)cc2)cc1)C(=O)O; Bip(4'-NHAc) = CC(=O)Nc1ccc(-c2ccc(C[C@H](N)C(=O)O)cc2)cc1; Indole3carbonyl(1-CH2COOH) = O=C(O)Cn1cc(C(=O)*)c2ccccc21; X36 = N=C(NCCC[C@@H](N[*:1])C(=O)[*:2])NCc1cccc(C(=O)O)c1; dArg(ω-Bn) = N=C(NCCC[C@@H](N)C(=O)O)NCc1ccccc1; Ala(morpholin-4-yl) = N[C@@H](CN1CCOCC1)C(=O)O; Benzoyl(3-OCH2COOH) = O=C(O)COc1cccc(C(=O)*)c1; Phe(3-CONH2) = NC(=O)c1cccc(C[C@H](N)C(=O)O)c1; Bip = N[C@@H](Cc1ccc(-c2ccccc2)cc1)C(=O)O; Ala(2-furyl) = N[C@@H](Cc1ccco1)C(=O)O; 2Pal = N[C@@H](Cc1ccccn1)C(=O)O; Cha = N[C@@H](CC1CCCCC1)C(=O)O; Chg = N[C@H](C(=O)O)C1CCCCC1; Sar = CNCC(=O)O

Target: TNFα (Homo sapiens, UniProt P01375)
Experiment: TNF-Induced HEK-Blue Assay
Format: cell-based
Details: not given

Sequence of TNFα (P01375 77-233 limits assumed): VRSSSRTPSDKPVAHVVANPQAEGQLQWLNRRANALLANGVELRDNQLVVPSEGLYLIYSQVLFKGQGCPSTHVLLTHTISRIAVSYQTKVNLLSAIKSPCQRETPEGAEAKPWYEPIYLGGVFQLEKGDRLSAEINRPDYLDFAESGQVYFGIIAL

Compound	pIC50
CC(C)C[C@@H]1NC(=O)[C@H](Cc2ccc(O)cc2)NC(=O)[C@H](C(C)C)NC(=O)[C@@H]2CCCN2C(=O)[C@H](C(C)C)NC(=O)[C@@H](CCCNC(=N)NCc2ccccc2)NC(=O)[C@H](CC(=O)O)NC(=O)[C@@H]2CCCN2C(=O)CN(C)C(=O)[C@H](Cc2ccc(-c3ccc(NC(=O)c4cn(CC(=O)O)c5ccccc45)cc3)cc2)NC(=O)[C@H](Cc2ccc(-c3ccccc3)cc2)NC(=O)[C@H](CN2CCOCC2)NC(=O)CSC[C@@H](C(=O)NCC(N)=O)NC1=O [Example 531] ({CH2CO}-[Ala(morpholin-4-yl)][Bip][Bip(4'-NH)](Indole3carbonyl(1-CH2COOH))[Sar]PD[dArg(ω-Bn)]VPVYLCG-NH2; thioether N-13)	> 7.30
CC[C@H](C)[C@@H]1NC(=O)[C@@H](CCCNC(=N)NCc2ccccc2)NC(=O)[C@H](CC(=O)O)NC(=O)[C@@H]2CCCN2C(=O)CN(C)C(=O)[C@H](Cc2ccc(-c3ccc(NC(=O)c4cn(CC(=O)O)c5ccccc45)cc3)cc2)NC(=O)[C@H](Cc2ccc(-c3ccccc3)cc2)NC(=O)[C@H](CN2CCOCC2)NC(=O)CSC[C@@H](C(=O)NCC(N)=O)NC(=O)[C@H](CC(C)C)NC(=O)[C@H](Cc2cnc[nH]2)NC(=O)[C@H](C(C)C)NC(=O)[C@@H]2CCCN2C1=O [Example 533] ({CH2CO}-[Ala(morpholin-4-yl)][Bip][Bip(4'-NH)](Indole3carbonyl(1-CH2COOH))[Sar]PD[dArg(ω-Bn)]IPVHLCG-NH2; thioether N-13)	> 7.30
CC(C)C[C@@H]1NC(=O)[C@H](Cc2cccc(C(N)=O)c2)NC(=O)[C@H](C(C)C)NC(=O)[C@@H]2CCCN2C(=O)[C@H](C(C)C)NC(=O)[C@@H](CCCNC(=N)NCc2ccccc2)NC(=O)[C@H](CC(=O)O)NC(=O)[C@@H]2CCCN2C(=O)CN(C)C(=O)[C@H](Cc2ccc(-c3ccc(NC(=O)c4cn(CC(=O)O)c5ccccc45)cc3)cc2)NC(=O)[C@H](Cc2ccc(-c3ccccc3)cc2)NC(=O)[C@H](CN2CCOCC2)NC(=O)CSC[C@@H](C(=O)NCC(N)=O)NC1=O [Example 535] ({CH2CO}-[Ala(morpholin-4-yl)][Bip][Bip(4'-NH)](Indole3carbonyl(1-CH2COOH))[Sar]PD[dArg(ω-Bn)]VPV[Phe(3-CONH2)]LCG-NH2; thioether N-13)	> 7.30
CC(C)C[C@@H]1NC(=O)[C@H](CCCNC(=N)N)NC(=O)[C@H](C(C)C)NC(=O)[C@@H]2CCCN2C(=O)[C@H](C(C)C)NC(=O)[C@@H](CCCNC(=N)NC[C@H](O)CO)NC(=O)[C@H](CC(=O)O)NC(=O)[C@@H]2CCCN2C(=O)CN(C)C(=O)[C@H](Cc2ccc(-c3ccc(NC(=O)c4cn(CC(=O)O)c5ccccc45)cc3)cc2)NC(=O)[C@H](Cc2ccc(-c3ccccc3)cc2)NC(=O)[C@H](CN2CCOCC2)NC(=O)CSC[C@@H](C(=O)NCC(N)=O)NC1=O [Example 540] ({CH2CO}-[Ala(morpholin-4-yl)][Bip][Bip(4'-NH)](Indole3carbonyl(1-CH2COOH))[Sar]PD[dArg(ω-(2S)-2,3-diOHpropyl)]VPVRLCG-NH2; thioether N-13)	> 7.30

Same assay, conditions: HEK-Blue-CD40L cells, NF-kB-driven secreted alkaline phosphatase reporter; TNFα 0.5 ng/ml; 18 h; read-out: TNF induced HEK-Blue assay IC50 value

Compound	pIC50
CC[C@H](C)[C@@H]1NC(=O)[C@@H](CCCNC(=N)N)NC(=O)[C@H](CC(=O)O)NC(=O)[C@H](Cc2ccccn2)NC(=O)CN(C)C(=O)[C@H](Cc2ccc(-c3ccc(NC(C)=O)cc3)cc2)NC(=O)[C@H](Cc2ccc(-c3ccccc3)cc2)NC(=O)[C@H](CN2CCOCC2)NC(=O)CSC[C@@H](C(=O)NCC(N)=O)NC(=O)[C@H](CC(C)C)NC(=O)[C@H](Cc2cnc[nH]2)NC(=O)[C@H](C(C)C)NC(=O)[C@@H]2CCCN2C1=O [Example 522] ({CH2CO}-[Ala(morpholin-4-yl)][Bip][Bip(4'-NHAc)][Sar][2Pal]D[dR]IPVHLCG-NH2; thioether N-13)	> 7.30
CC(=O)Nc1ccc(-c2ccc(C[C@@H]3NC(=O)[C@H](Cc4ccc(-c5ccccc5)cc4)NC(=O)[C@H](CN4CCOCC4)NC(=O)CSC[C@@H](C(=O)NCC(N)=O)NC(=O)[C@H](CC(C)C)NC(=O)[C@H](Cc4c[nH]cn4)NC(=O)[C@H](C4CCCCC4)NC(=O)[C@@H]4CCCN4C(=O)[C@H](C(C)C)NC(=O)[C@@H](CCCNC(=N)N)NC(=O)[C@H](CC(=O)O)NC(=O)[C@H](Cc4ccco4)NC(=O)CN(C)C3=O)cc2)cc1 [Example 524] ({CH2CO}-[Ala(morpholin-4-yl)][Bip][Bip(4'-NHAc)][Sar][Ala(2-furyl)]D[dR]VP[Chg]HLCG-NH2; thioether N-13)	6.70 to 7.30
CC(C)C[C@@H]1NC(=O)[C@H](Cc2cnc[nH]2)NC(=O)[C@H](C(C)C)NC(=O)[C@@H]2CCCN2C(=O)[C@H](C(C)C)NC(=O)[C@@H](CCCNC(=N)N)NC(=O)[C@H](CC(=O)O)NC(=O)[C@H](Cc2cnc[nH]2)NC(=O)CN(C)C(=O)[C@H](Cc2ccc(-c3ccc(NC(=O)c4ccc(CC(=O)O)cc4)cc3)cc2)NC(=O)[C@H](Cc2ccc(-c3ccccc3)cc2)NC(=O)[C@H](CC2CCCCC2)NC(=O)CSC[C@@H](C(=O)NCC(N)=O)NC1=O [Example 526] ({CH2CO}-[Cha][Bip][Bip(4'-NHCO-C6H4-4-CH2COOH)][Sar]HD[dR]VPVHLCG-NH2; thioether N-13)	> 7.30
CC[C@H](C)[C@@H]1NC(=O)[C@@H](CCCNC(=N)N)NC(=O)[C@H](CC(=O)O)NC(=O)[C@H](Cc2cnc[nH]2)NC(=O)CN(C)C(=O)[C@H](Cc2ccc(-c3ccc(NC(=O)c4cccc(CC(=O)O)c4)cc3)cc2)NC(=O)[C@H](Cc2ccc(-c3ccc(C(=O)NC)cc3)cc2)NC(=O)[C@H](CC2CCCCC2)NC(=O)CSC[C@@H](C(=O)NCC(N)=O)NC(=O)[C@H](CC(C)C)NC(=O)[C@H](Cc2cnc[nH]2)NC(=O)[C@H](C(C)C)NC(=O)[C@@H]2CCCN2C1=O [Example 527] ({CH2CO}-[Cha][Bip(4'-CONHMe)][Bip(4'-NHCO-C6H4-3-CH2COOH)][Sar]HD[dR]IPVHLCG-NH2; thioether N-13)	> 7.30
CC[C@H](C)[C@@H]1NC(=O)[C@@H](CCCNC(=N)N)NC(=O)[C@H](CC(=O)O)NC(=O)[C@H](Cc2cnc[nH]2)NC(=O)CN(C)C(=O)[C@H](Cc2ccc(-c3ccc(NC(=O)c4ccc(CC(=O)O)cc4)cc3)cc2)NC(=O)[C@H](Cc2ccc(-c3ccc(C(=O)NC)cc3)cc2)NC(=O)[C@H](CC2CCCCC2)NC(=O)CSC[C@@H](C(=O)NCC(N)=O)NC(=O)[C@H](CC(C)C)NC(=O)[C@H](Cc2cnc[nH]2)NC(=O)[C@H](C(C)C)NC(=O)[C@@H]2CCCN2C1=O [Example 528] ({CH2CO}-[Cha][Bip(4'-CONHMe)][Bip(4'-NHCO-C6H4-4-CH2COOH)][Sar]HD[dR]IPVHLCG-NH2; thioether N-13)	> 7.30
CC[C@H](C)[C@@H]1NC(=O)[C@@H](CCCNC(=N)N)NC(=O)[C@H](CC(=O)O)NC(=O)[C@H](Cc2cnc[nH]2)NC(=O)CN(C)C(=O)[C@H](Cc2ccc(-c3ccc(NC(=O)c4cccc(C(=O)O)c4)cc3)cc2)NC(=O)[C@H](Cc2ccc(-c3ccc(C(=O)O)cc3)cc2)NC(=O)[C@H](CC2CCCCC2)NC(=O)CSC[C@@H](C(=O)NCC(N)=O)NC(=O)[C@H](CC(C)C)NC(=O)[C@H](Cc2cnc[nH]2)NC(=O)[C@H](C(C)C)NC(=O)[C@@H]2CCCN2C1=O [Example 530] ({CH2CO}-[Cha][Bip(4'-COOH)][Bip(4'-(3-HOOC-benzamido))][Sar]HD[dR]IPVHLCG-NH2; thioether N-13)	> 7.30
CC(C)C[C@@H]1NC(=O)[C@H](CCCNC(=N)N)NC(=O)[C@H](C(C)C)NC(=O)[C@@H]2CCCN2C(=O)[C@H](C(C)C)NC(=O)[C@@H](CCCNC(=N)NC[C@H](O)CO)NC(=O)[C@H](CC(=O)O)NC(=O)[C@@H]2CCCN2C(=O)CN(C)C(=O)[C@H](Cc2ccc(-c3ccc(NC(=O)c4cccc(CC(=O)O)c4)cc3)cc2)NC(=O)[C@H](Cc2ccc(-c3ccccc3)cc2)NC(=O)[C@H](CN2CCOCC2)NC(=O)CSC[C@@H](C(=O)NCC(N)=O)NC1=O [Example 537] ({CH2CO}-[Ala(morpholin-4-yl)][Bip][Bip(4'-NHCO-C6H4-3-CH2COOH)][Sar]PD[dArg(ω-(2S)-2,3-diOHpropyl)]VPVRLCG-NH2; thioether N-13)	6.70 to 7.30
CC(C)C[C@@H]1NC(=O)[C@H](CCCNC(=N)N)NC(=O)[C@H](C(C)C)NC(=O)[C@@H]2CCCN2C(=O)[C@H](C(C)C)NC(=O)[C@@H](CCCNC(=N)NC[C@H](O)CO)NC(=O)[C@H](CC(=O)O)NC(=O)[C@@H]2CCCN2C(=O)CN(C)C(=O)[C@H](Cc2ccc(-c3ccc(NC(=O)c4cccc(OCC(=O)O)c4)cc3)cc2)NC(=O)[C@H](Cc2ccc(-c3ccccc3)cc2)NC(=O)[C@H](CN2CCOCC2)NC(=O)CSC[C@@H](C(=O)NCC(N)=O)NC1=O [Example 538] ({CH2CO}-[Ala(morpholin-4-yl)][Bip][Bip(4'-NH)](Benzoyl(3-OCH2COOH))[Sar]PD[dArg(ω-(2S)-2,3-diOHpropyl)]VPVRLCG-NH2; thioether N-13)	5.70 to 6.70
CC(C)C[C@@H]1NC(=O)[C@H](CCCNC(=N)N)NC(=O)[C@H](C(C)C)NC(=O)[C@@H]2CCCN2C(=O)[C@H](C(C)C)NC(=O)[C@@H](CCCNC(=N)NCc2cccc(C(=O)O)c2)NC(=O)[C@H](CC(=O)O)NC(=O)[C@@H]2CCCN2C(=O)CN(C)C(=O)[C@H](Cc2ccc(-c3ccc(NC(=O)c4cccc(CC(=O)O)c4)cc3)cc2)NC(=O)[C@H](Cc2ccc(-c3ccccc3)cc2)NC(=O)[C@H](CN2CCOCC2)NC(=O)CSC[C@@H](C(=O)NCC(N)=O)NC1=O [Example 543] ({CH2CO}-[Ala(morpholin-4-yl)][Bip][Bip(4'-NHCO-C6H4-3-CH2COOH)][Sar]PD[X36]VPVRLCG-NH2; thioether N-13)	5.70 to 6.70
CC(C)C[C@@H]1NC(=O)[C@H](CCCNC(=N)N)NC(=O)[C@H](C(C)C)NC(=O)[C@@H]2CCCN2C(=O)[C@H](C(C)C)NC(=O)[C@@H](CCCNC(=N)NCc2cccc(C(=O)O)c2)NC(=O)[C@H](CC(=O)O)NC(=O)[C@@H]2CCCN2C(=O)CN(C)C(=O)[C@H](Cc2ccc(-c3ccc(NC(=O)c4cccc(OCC(=O)O)c4)cc3)cc2)NC(=O)[C@H](Cc2ccc(-c3ccccc3)cc2)NC(=O)[C@H](CN2CCOCC2)NC(=O)CSC[C@@H](C(=O)NCC(N)=O)NC1=O [Example 544] ({CH2CO}-[Ala(morpholin-4-yl)][Bip][Bip(4'-NH)](Benzoyl(3-OCH2COOH))[Sar]PD[X36]VPVRLCG-NH2; thioether N-13)	5.70 to 6.70
